These results are taken from ChEMBL document CHEMBL3286176, “Discovery and structure-activity relationship of novel 2,3-dihydrobenzofuran-7-carboxamide and 2,3-dihydrobenzofuran-3(2H)-one-7-carboxamide derivatives as poly(ADP-ribose)polymerase-1 inhibitors” (J Med Chem, 2014).

Molecules are shown by their SMILES. pIC50: −log10 of the molar value.

Broadly, the IC90 is the point of the concentration-response curve where the effect stands at 90%. Broadly, the pIC50 is the IC50 on a negative log10 scale, so that one unit is a factor of ten. The low end stands for a high IC50, the high end for a low IC50.

Poly [ADP-ribose] polymerase 1, sequence (P09874 whole entry): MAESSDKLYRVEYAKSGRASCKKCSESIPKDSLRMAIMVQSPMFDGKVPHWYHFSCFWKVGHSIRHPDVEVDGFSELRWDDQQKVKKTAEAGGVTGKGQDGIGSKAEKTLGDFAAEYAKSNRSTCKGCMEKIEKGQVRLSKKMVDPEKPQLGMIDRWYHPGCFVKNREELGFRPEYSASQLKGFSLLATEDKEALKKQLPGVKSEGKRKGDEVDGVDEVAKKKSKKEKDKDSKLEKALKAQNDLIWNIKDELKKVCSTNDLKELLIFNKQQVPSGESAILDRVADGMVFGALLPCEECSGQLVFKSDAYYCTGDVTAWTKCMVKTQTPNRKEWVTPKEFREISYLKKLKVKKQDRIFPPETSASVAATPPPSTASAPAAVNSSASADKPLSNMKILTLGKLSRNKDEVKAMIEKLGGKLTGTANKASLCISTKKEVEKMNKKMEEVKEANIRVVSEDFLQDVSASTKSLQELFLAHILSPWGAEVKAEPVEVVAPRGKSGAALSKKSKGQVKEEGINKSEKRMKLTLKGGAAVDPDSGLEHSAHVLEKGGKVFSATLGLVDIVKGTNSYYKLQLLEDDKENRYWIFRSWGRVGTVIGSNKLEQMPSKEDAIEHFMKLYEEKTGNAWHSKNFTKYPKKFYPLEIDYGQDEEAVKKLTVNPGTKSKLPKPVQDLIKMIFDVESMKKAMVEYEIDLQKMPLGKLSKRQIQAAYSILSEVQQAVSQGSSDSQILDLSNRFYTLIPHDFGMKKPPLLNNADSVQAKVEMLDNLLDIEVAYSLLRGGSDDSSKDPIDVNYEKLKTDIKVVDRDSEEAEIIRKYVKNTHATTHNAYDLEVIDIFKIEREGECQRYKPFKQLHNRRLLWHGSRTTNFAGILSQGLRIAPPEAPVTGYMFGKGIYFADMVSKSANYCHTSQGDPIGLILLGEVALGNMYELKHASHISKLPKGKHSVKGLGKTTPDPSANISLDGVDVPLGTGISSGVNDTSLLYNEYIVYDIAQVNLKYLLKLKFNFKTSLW

Tested on in one data set: not listed separately
As to the kind of experiment: Cytotoxicity against chicken BRCA2-deficient DT40 cells assessed as cell viability after 72 hrs by ATPlite assay. It counts as cell-based, Gallus gallus.
Details: not given
In general terms: Cellular ATP, detected with luciferase, serves as a proxy for viable cell number.
Consider `CN1CCN(CCOc2ccc(/C=C3\Oc4c(C(N)=O)cccc4C3=O)cc2)CC1`, for which the IC90 at 72 h turned out to be 5.2 µM.

Tested on in another data set: not listed separately
The experiment in a line: Cytotoxicity against chicken PARP1-deficient DT40 cells assessed as cell viability at 10 uM after 72 hrs by ATPlite assay. It counts as cell-based, Gallus gallus. The settings on record: dt40, 72 h.
As to `CN1CCN(CCOc2ccc(/C=C3\Oc4c(C(N)=O)cccc4C3=O)cc2)CC1`, the Activity entry is reported as “Toxic”.
With `C[C@]1(c2nc3c(C(N)=O)cccc3[nH]2)CCCN1` [VELIPARIB], the Activity entry is “Non-toxic”.

Tested on in another data set: not listed separately
The experiment in a line: Cytotoxicity against chicken wild-type DT40 cells assessed as cell viability at 10 uM after 72 hrs by ATPlite assay. It counts as cell-based, Gallus gallus. The settings on record: dt40, 72 h.
As to `CN1CCN(CCOc2ccc(/C=C3\Oc4c(C(N)=O)cccc4C3=O)cc2)CC1`, the Activity result was “Toxic”.
For `C[C@]1(c2nc3c(C(N)=O)cccc3[nH]2)CCCN1` [VELIPARIB], the Activity entry is given as “Non-toxic”.

A further data set concerns the target Poly [ADP-ribose] polymerase 1 (Homo sapiens, UniProt P09874). The experiment in a line: Inhibition of PARP-1 (unknown origin) using biotinylated NAD+ as substrate after 60 mins by spectrophotometry.
Details: not given
Regarding `NC(=O)c1cccc2c1O/C(=C\c1ccc(OCC(=O)N3CCOCC3)cc1)C2=O`, the pIC50 is 6.65.
Take `CN1CCN(CCOc2ccc(/C=C3\Oc4c(C(N)=O)cccc4C3=O)cc2)CC1`: the pIC50 was 6.94.
The same measure, in the same setting: as for `NC(=O)c1cccc2c1O/C(=C\c1ccc(OCCN3CCCCC3)cc1)C2=O`, the figure is 6.26; as for `NC(=O)c1nn(CCCN2C(=O)C(=O)c3ccccc32)c2ccccc12`, 5.17; as for `C[C@@H]1Cc2cccc(C(N)=O)c2O1`, 5.20.
`NC(=O)c1cccc2c1O/C(=C\c1ccccc1O)C2=O` had a pIC50 of less than 5.00.
On the same count and under the same terms, the value for `CN1CCN(CCS(=O)(=O)Nc2ccc(/C=C3\Oc4c(C(N)=O)cccc4C3=O)cc2)CC1` was 7.10.
For `C[C@@H]1Cc2cc(F)cc(C(N)=O)c2O1`, the negative logarithm of the IC50 (pIC50) was 5.82.
In turn, `NC(=O)c1cccc2c1O/C(=C\c1cccc(O)c1)C2=O` had a pIC50 of 5.67.
On the same count and under the same terms, the value for `C[C@H]1Cc2cccc(C(N)=O)c2O1` was 5.07; that for `NC(=O)c1cccc2c1O/C(=C\c1cccc(OCCN3CCOCC3)c1)C2=O` was less than 5.00; that for `CC1Cc2cc(N)cc(C(N)=O)c2O1` (stereo unspecified) was less than 4.60.
`NC(=O)c1cccc2c1O/C(=C\c1cccc(Oc3ccccc3)c1)C2=O` gave a pIC50 of 5.33.
As for `CC1Cc2c(N)ccc(C(N)=O)c2O1` (single isomer, unassigned), the negative-log IC50 (pIC50) was 5.27.
For the compound `NC(=O)c1cccc2c1O/C(=C\c1ccc(OCCN3CCN(c4ccc(F)cc4)CC3)cc1)C2=O`, the negative-log IC50 (pIC50) is 6.35. This pIC50 lies 1.08 log units higher than the previous one.
As to `NC(=O)c1cccc2c1OCC2`, the pIC50 was 5.02. Against the preceding compound, the pIC50 is 1.33 log units lower.
Still for that read-out and setting: the value for `NC(=O)c1cccc2c1O/C(=C\c1ccc(OCCCN3CCOCC3)cc1)C2=O` was 6.14.
In turn, `NC(=O)c1cccc2c1O/C(=C\c1cccc(OCCN3CCCCC3)c1)C2=O` gave a pIC50 of less than 5.00.
Compound `CC1Cc2c(N)ccc(C(N)=O)c2O1` (single isomer, unassigned; enantiomer 1) had a pIC50 of 5.61.
The same measure, in the same setting: the value for `NC(=O)c1cccc2c1OCC2=O` was 4.79; that for `NC(=O)c1cccc2c1O/C(=C\c1ccc(OCCN3CCOCC3)cc1)C2=O` was 5.68.
On to `NC(=O)c1cccc2c1O/C(=C\c1ccc(O)cc1O)C2=O`, for which the pIC50 is 6.12.
As to `NC(=O)c1cc(Br)cc2c1OCC2`, the negative logarithm of the IC50 (pIC50) is less than 4.60.
As to `CC1Cc2cccc(C(N)=O)c2O1` (racemic), the negative-log IC50 (pIC50) was 4.98.
With `NC(=O)c1cccc2c1O/C(=C\c1ccc(O)cc1)C2=O`, the negative logarithm of the IC50 (pIC50) was 6.09.
For `NC(=O)c1cccc2c1O/C(=C\c1ccc(OCC(O)CN3CCOCC3)cc1)C2=O` (stereo unspecified), the negative logarithm of the IC50 (pIC50) was 6.75.
Turning to `NC(=O)c1cc([N+](=O)[O-])cc2c1OCC2`, the pIC50 is less than 4.60.
Regarding `CN1CCN(CCCS(=O)(=O)Nc2ccc(/C=C3\Oc4c(C(N)=O)cccc4C3=O)cc2)CC1`, the pIC50 is 6.95.
With `NC(=O)c1cc(N)cc2c1OCC2`, the pIC50 was less than 4.60.
Still for that read-out and setting: the value for `NC(=O)c1cccc2c1O/C(=C\c1ccc(OCC3CO3)cc1)C2=O` (stereo unspecified) was 5.92; that for `C[C@H]1Cc2cc(F)cc(C(N)=O)c2O1` was 5.44.
Compound `Cc1cc2c(c(C(N)=O)c1)OC(C)C2` (stereo unspecified) had a pIC50 of less than 4.60.
`COc1ccc(/C=C2\Oc3c(C(N)=O)cccc3C2=O)cc1` had a pIC50 of 5.48.
On the same count and under the same terms, as for `NC(=O)c1cccc2c1O/C(=C\c1ccc(O)c(O)c1)C2=O`, the figure is 6.27; as for `NC(=O)c1cccc2c1O/C(=C\c1ccc(Cl)cc1)C2=O`, 5.22; as for `NC(=O)c1cc(F)cc2c1OCC2`, 5.67.
Compound `NC(=O)c1cccc2c1O/C(=C\c1cc(O)ccc1O)C2=O` gave a pIC50 of less than 5.00.
`CC1Cc2cc(F)cc(C(N)=O)c2O1` (racemic): the pIC50 is 5.61.
Compound `CC1Cc2cc([N+](=O)[O-])cc(C(N)=O)c2O1` (stereo unspecified) had a pIC50 of less than 4.60.
Regarding `NC(=O)c1cccc2c1O/C(=C\c1cc(O)cc(O)c1)C2=O`, the pIC50 is less than 5.00.
For the compound `COc1cc(/C=C2\Oc3c(C(N)=O)cccc3C2=O)ccc1O`, the pIC50 is 5.44.
